The structures appear in SMILES notation. Active and inactive are the calls of the source. The calls are words filed in the database; no cut-off is given here.

Consider 1 compound from ChEMBL document CHEMBL1140476 (Bioorg Med Chem, 2007).

Experiment [1] concerns Escherichia coli. Kind of experiment: Inhibition of Escherichia coli DnaB helicase at 60 uM.
The test system of experiment [2] is Escherichia coli. Kind of experiment: Inhibition of Escherichia coli DnaB helicase at 6 uM.
Experiment [3] relates to Escherichia coli. Kind of experiment: Inhibition of Escherichia coli DnaB helicase-stimulated primer synthesis.
In experiment [4] the test system is Escherichia coli. Kind of experiment: Inhibition of Escherichia coli DnaB helicase at 30 uM.
Experiment [5] deals with Escherichia coli. Kind of experiment: Inhibition of Escherichia coli DnaB helicase at 12 uM.
Experiment [6] is described as follows: Inhibition of Escherichia coli DnaB helicase in presence of 150 uM ATP.
Experiment [7] is described as follows: Inhibition of Escherichia coli DnaB helicase in presence of 1 mM ATP.

For `O=c1c(O)c(-c2cc(O)c(O)c(O)c2)oc2cc(O)cc(O)c12` [MYRICETIN], the Km in experiment [1] turned out to be 4.5 µM; in experiment [2], 17 µM; in experiment [4] it was 2.3 µM; in experiment [5] it was 2.9 µM. Moreover, the Vmax in experiment [1] is 0.35 µM/s; in experiment [2], 1.64 µM/s; in experiment [4], 0.61 µM/s; in experiment [5], 1.06 µM/s. Besides, the outcome in experiment [3] was Active. Moreover, the IC50 was 10.2 µM in experiment [6] and 11.3 µM in experiment [7].
